Legend:
Assay in all cases: Histone peptide microarray
Format in all cases: binding, human
[1] = tested on: AIRE (PP); conditions: AIRE (PP); sheet "Array Heatmap"; each array performed twice, total n = 4
Description: (§1) To more comprehensively define the histone interactions of the 31 PHD readers identified from the domain microarray analyses, we probed each on an alternate microarray platform containing a library of 293 synthetic histone peptides with single or combinatorial PTMs (Additional file 2: Figure S4 and Additional file 3: Table S2).
(§2) The 31 GST-tagged PHD readers identified in the PHD finger domain array were expressed and purified as previously. Histone peptide arrays and peptide pulldown assays were conducted as recently described (specifically, the optimized protocol from Petell et al. for the former).
(§3) Supplementary file 13072_2020_328_MOESM3_ESM.xlsx: Additional file 3: Table S2. […] Excel Tab Peptide List is a compiled list of the entire 293 histone peptide library with amino acid sequence ranges. […] Each number corresponds to the peptide number designated in Peptide List. Excel Tab Average Signals is a compiled set of binding data: chromatin reader at 0.5 μM vs. entire 293 peptide library. Data is presented as the average and standard deviation of 4 replicates. The average signals are colored to indicate signal intensity with green being strong and white being weak/low. […] Key: red= stronger relative binding; blue = weaker relative binding. Excel Tab Array info summary is a table summarizing the domains, sequence coverage, array signal range, and noise for each of the GST-tagged readers assayed on the peptide microarrays.

[2] = tested on: BAZ2B; conditions: BAZ2B; sheet "Array Heatmap"; each array performed twice, total n = 4
Description: as §1, §2, §3

[3] = tested on: BPTF (PB); conditions: BPTF (PB); sheet "Array Heatmap"; each array performed twice, total n = 4
Description: as §1, §2, §3

[4] = tested on: CHD4 (PPCC); conditions: CHD4 (PPCC); sheet "Array Heatmap"; each array performed twice, total n = 4
Description: as §1, §2, §3

[5] = tested on: CHD5 (PCC); conditions: CHD5 (PCC); sheet "Array Heatmap"; each array performed twice, total n = 4
Description: as §1, §2, §3

[6] = tested on: CHD5 (PPCC); conditions: CHD5 (PPCC); sheet "Array Heatmap"; each array performed twice, total n = 4
Description: as §1, §2, §3

[7] = tested on: DIDO1; conditions: DIDO1; sheet "Array Heatmap"; each array performed twice, total n = 4
Description: as §1, §2, §3

[8] = tested on: DPF2 (PPC2W2); conditions: DPF2 (PPC2W2); sheet "Array Heatmap"; each array performed twice, total n = 4
Description: as §1, §2, §3

[9] = tested on: ING1; conditions: ING1; sheet "Array Heatmap"; each array performed twice, total n = 4
Description: as §1, §2, §3

[10] = tested on: ING2; conditions: ING2; sheet "Array Heatmap"; each array performed twice, total n = 4
Description: as §1, §2, §3

[11] = tested on: ING3; conditions: ING3; sheet "Array Heatmap"; each array performed twice, total n = 4
Description: as §1, §2, §3

[12] = tested on: ING4; conditions: ING4; sheet "Array Heatmap"; each array performed twice, total n = 4
Description: as §1, §2, §3

[13] = tested on: ING5; conditions: ING5; sheet "Array Heatmap"; each array performed twice, total n = 4
Description: as §1, §2, §3

[14] = tested on: KDM4C (TTP); conditions: KDM4C (TTP); sheet "Array Heatmap"; each array performed twice, total n = 4
Description: as §1, §2, §3

[15] = tested on: KDM5A (1); conditions: KDM5A (1); sheet "Array Heatmap"; each array performed twice, total n = 4
Description: as §1, §2, §3

[16] = tested on: KDM5A (3); conditions: KDM5A (3); sheet "Array Heatmap"; each array performed twice, total n = 4
Description: as §1, §2, §3

[17] = tested on: KDM5B (1); conditions: KDM5B (1); sheet "Array Heatmap"; each array performed twice, total n = 4
Description: as §1, §2, §3

[18] = tested on: KDM5B (3); conditions: KDM5B (3); sheet "Array Heatmap"; each array performed twice, total n = 4
Description: as §1, §2, §3

[19] = tested on: KDM7A; conditions: KDM7A; sheet "Array Heatmap"; each array performed twice, total n = 4
Description: as §1, §2, §3

[20] = tested on: MLL5; conditions: MLL5; sheet "Array Heatmap"; each array performed twice, total n = 4
Description: as §1, §2, §3

[21] = tested on: MORC3 (CW); conditions: MORC3 (CW); sheet "Array Heatmap"; each array performed twice, total n = 4
Description: as §1, §2, §3

[22] = tested on: PHF13; conditions: PHF13; sheet "Array Heatmap"; each array performed twice, total n = 4
Description: as §1, §2, §3

[23] = tested on: PHF21A; conditions: PHF21A; sheet "Array Heatmap"; each array performed twice, total n = 4
Description: as §1, §2, §3

[24] = tested on: PHF23; conditions: PHF23; sheet "Array Heatmap"; each array performed twice, total n = 4
Description: as §1, §2, §3

[25] = tested on: PHF2; conditions: PHF2; sheet "Array Heatmap"; each array performed twice, total n = 4
Description: as §1, §2, §3

[26] = tested on: PHF8; conditions: PHF8; sheet "Array Heatmap"; each array performed twice, total n = 4
Description: as §1, §2, §3

[27] = tested on: PHRF1 (RP); conditions: PHRF1 (RP); sheet "Array Heatmap"; each array performed twice, total n = 4
Description: as §1, §2, §3

[28] = tested on: RAG2; conditions: RAG2; sheet "Array Heatmap"; each array performed twice, total n = 4
Description: as §1, §2, §3

[29] = tested on: SP140L; conditions: SP140L; sheet "Array Heatmap"; each array performed twice, total n = 4
Description: as §1, §2, §3

[30] = tested on: TAF3; conditions: TAF3; sheet "Array Heatmap"; each array performed twice, total n = 4
Description: as §1, §2, §3

[31] = tested on: TRIM66 (PB); conditions: TRIM66 (PB); sheet "Array Heatmap"; each array performed twice, total n = 4
Description: as §1, §2, §3

Substance	Array Heatmap value (peptide array signal) [1]	Array Heatmap value (peptide array signal) [2]	Array Heatmap value (peptide array signal) [3]	Array Heatmap value (peptide array signal) [4]	Array Heatmap value (peptide array signal) [5]	Array Heatmap value (peptide array signal) [6]	Array Heatmap value (peptide array signal) [7]	Array Heatmap value (peptide array signal) [8]	Array Heatmap value (peptide array signal) [9]	Array Heatmap value (peptide array signal) [10]	Array Heatmap value (peptide array signal) [11]	Array Heatmap value (peptide array signal) [12]	Array Heatmap value (peptide array signal) [13]	Array Heatmap value (peptide array signal) [14]	Array Heatmap value (peptide array signal) [15]	Array Heatmap value (peptide array signal) [16]	Array Heatmap value (peptide array signal) [17]	Array Heatmap value (peptide array signal) [18]	Array Heatmap value (peptide array signal) [19]	Array Heatmap value (peptide array signal) [20]	further results
H2BK5me1: H2B 1-24 [Peptide H2BK5me1]	0.3816	0.4388	0.3333	0.5519	0.7328	0.5218	0.7058	0.6733	0.5552	0.6238	0.4514	0.4312	0.3396	0.4441	0.4431	0.4387	0.6308	0.4454	0.316	0.5838	Array Heatmap value (peptide array signal) [21]: 0.347; Array Heatmap value (peptide array signal) [22]: 0.5791; Array Heatmap value (peptide array signal) [23]: 0.4511; Array Heatmap value (peptide array signal) [24]: 0.5121; Array Heatmap value (peptide array signal) [25]: 0.5195; Array Heatmap value (peptide array signal) [26]: 0.341; Array Heatmap value (peptide array signal) [27]: 0.4244; Array Heatmap value (peptide array signal) [28]: 0.242; Array Heatmap value (peptide array signal) [29]: 0.3691; Array Heatmap value (peptide array signal) [30]: 0.2612; Array Heatmap value (peptide array signal) [31]: 0.6209
H2BK5me3: H2B 1-24 [Peptide H2BK5me3]	0.3902	0.449	0.341	0.5374	0.766	0.5383	0.7661	0.6454	0.5322	0.6172	0.4743	0.4354	0.3443	0.446	0.4446	0.4811	0.6322	0.4604	0.3153	0.5755	Array Heatmap value (peptide array signal) [21]: 0.3836; Array Heatmap value (peptide array signal) [22]: 0.5645; Array Heatmap value (peptide array signal) [23]: 0.4302; Array Heatmap value (peptide array signal) [24]: 0.5495; Array Heatmap value (peptide array signal) [25]: 0.5404; Array Heatmap value (peptide array signal) [26]: 0.3604; Array Heatmap value (peptide array signal) [27]: 0.4726; Array Heatmap value (peptide array signal) [28]: 0.2767; Array Heatmap value (peptide array signal) [29]: 0.332; Array Heatmap value (peptide array signal) [30]: 0.2673; Array Heatmap value (peptide array signal) [31]: 0.6056
H2BK12ac: H2B 1-24 [Peptide H2BK12ac]	0.3561	0.3626	0.2975	0.55	0.7553	0.4364	0.6693	0.6335	0.4874	0.5927	0.413	0.3767	0.2703	0.3788	0.3805	0.4192	0.5631	0.4029	0.2936	0.5021	Array Heatmap value (peptide array signal) [21]: 0.3313; Array Heatmap value (peptide array signal) [22]: 0.5184; Array Heatmap value (peptide array signal) [23]: 0.4277; Array Heatmap value (peptide array signal) [24]: 0.4647; Array Heatmap value (peptide array signal) [25]: 0.5083; Array Heatmap value (peptide array signal) [26]: 0.311; Array Heatmap value (peptide array signal) [27]: 0.4148; Array Heatmap value (peptide array signal) [28]: 0.2122; Array Heatmap value (peptide array signal) [29]: 0.3291; Array Heatmap value (peptide array signal) [30]: 0.2326; Array Heatmap value (peptide array signal) [31]: 0.5657
H2BK15ac: H2B 1-24 [Peptide H2BK15ac]	0.4221	0.4604	0.3575	0.606	0.7574	0.5537	0.6647	0.6359	0.5436	0.6208	0.4826	0.465	0.3652	0.4832	0.465	0.4161	0.6467	0.457	0.3558	0.5596	Array Heatmap value (peptide array signal) [21]: 0.3521; Array Heatmap value (peptide array signal) [22]: 0.6426; Array Heatmap value (peptide array signal) [23]: 0.4803; Array Heatmap value (peptide array signal) [24]: 0.5678; Array Heatmap value (peptide array signal) [25]: 0.5204; Array Heatmap value (peptide array signal) [26]: 0.3468; Array Heatmap value (peptide array signal) [27]: 0.4303; Array Heatmap value (peptide array signal) [28]: 0.2507; Array Heatmap value (peptide array signal) [29]: 0.361; Array Heatmap value (peptide array signal) [30]: 0.2676; Array Heatmap value (peptide array signal) [31]: 0.5831

Source: PMC6979384, “Characterization of the plant homeodomain (PHD) reader family for their histone tail interactions” (Epigenetics & Chromatin, 2020)
